# Reference: US11376241B2, “Aryl hydrocarbon receptor (AhR) modulator compounds” (PHENEX PHARMACEUTICALS AG, priority 2017, dated 2022)
# Molecular target: T1, AhR (Homo sapiens, UniProt P35869)
# T1 construct: The HepG2 CYP1A1-Luc cells do express basal luciferase activity that can be increased via potent AhR agonists or decreased via potent AhR antagonists; endogenous in cells; host or cells: HepG2 (DSMZ #ACC 180) stably carrying a human CYP1A1 promoter-firefly luciferase reporter
# T1 sequence (P35869 11-848): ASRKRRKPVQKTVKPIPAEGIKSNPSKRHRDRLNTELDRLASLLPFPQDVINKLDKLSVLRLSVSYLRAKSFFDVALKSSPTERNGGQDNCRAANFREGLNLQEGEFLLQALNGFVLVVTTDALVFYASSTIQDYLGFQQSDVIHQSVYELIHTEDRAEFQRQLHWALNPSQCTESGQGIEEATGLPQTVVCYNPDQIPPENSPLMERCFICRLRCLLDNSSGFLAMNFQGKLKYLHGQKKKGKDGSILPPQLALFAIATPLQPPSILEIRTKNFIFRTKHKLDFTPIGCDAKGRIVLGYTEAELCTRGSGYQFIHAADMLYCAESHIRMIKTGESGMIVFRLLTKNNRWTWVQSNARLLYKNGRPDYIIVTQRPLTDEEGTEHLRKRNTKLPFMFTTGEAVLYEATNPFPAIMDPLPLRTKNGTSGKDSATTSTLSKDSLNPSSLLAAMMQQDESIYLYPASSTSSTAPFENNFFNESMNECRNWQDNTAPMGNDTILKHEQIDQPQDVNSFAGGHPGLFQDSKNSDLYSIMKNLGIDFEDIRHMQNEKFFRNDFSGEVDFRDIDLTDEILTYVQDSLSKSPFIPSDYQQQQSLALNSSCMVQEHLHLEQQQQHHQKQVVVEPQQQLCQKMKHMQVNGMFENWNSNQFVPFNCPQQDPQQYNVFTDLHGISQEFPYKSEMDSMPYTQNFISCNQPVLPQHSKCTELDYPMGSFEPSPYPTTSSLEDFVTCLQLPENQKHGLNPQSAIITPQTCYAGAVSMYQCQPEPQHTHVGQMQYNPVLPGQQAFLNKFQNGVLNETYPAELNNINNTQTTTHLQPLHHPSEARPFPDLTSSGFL
# Assay: AhR direct luciferase reporter assay in HepG2 cells (HepG2 CYP1A1-LUC)
# Type: cell-based
# Conditions: 18 hours, luciferase activity, no exogenous AhR agonist or 10 nM VAF347, read-out: AhR potency (AhR antagonistic potency, IC50)
# Source text: AhR direct luciferase reporter assay in HepG2 cells.
# A stable cell line (HepG2 CYP1A1-LUC) was used in which part of the promoter region of the human CYP1A1 gene is stably integrated into the genome of human HepG2 hepatocytes (DSZM #ACC 180) in front of a Photinus pyralis Firefly Luciferase gene. A 1210 bp fragment comprising part of the human CYP1A1 promoter was isolated via SacI and BglII restriction digestion from Lightswitch Clone S714555 (SwitchGearGenomics) and inserted between the SacI and BglII sites in pGL4.30 (Promega #E8481) in front of the Firefly Luciferase gene. The resulting vector was linearized with NotI, transfected into HepG2 cells (DSMZ #ACC 180) and stably transfected clones selected with 250 μg/ml Hygromycin B. After repetitive rounds of subcloning and testing for robustly regulated luciferase activity after AhR agonist stimulation, a stable clonal HepG2 CYP1A1-Luc cell line was selected.
# The HepG2 CYP1A1-Luc cells do express basal luciferase activity that can be increased via potent AhR agonists or decreased via potent AhR antagonists, added to the growth medium of the cells.
# In typical reporter assays performed with this cell line, cells are grown in 96-well plates and AhR modulators are titrated into the growth medium in serial dilutions in RPMI-1640 Medium (Sigma #R7509) supplemented with 8.6% fetal calf serum (Sigma #F7524) and containing either no exogenous AhR agonist or 10 nM of the potent AhR agonist VAF347 (Calbiochem #182690). Cells are further cultivated for 18 hours and luciferase activities are determined from extracts of cells in buffers containing D-Luciferine and ATP using a LUMIstar Optima microplate Luminometer from BMG Labtech.
row,SMILES,IC50
1,Cc1ccccc1-c1cc2cnc(NC(=O)c3ncnn3C)cc2[nH]1 [2/1],< 100 nM
2,Cn1ncnc1C(=O)Nc1cc2[nH]c(-c3c(Cl)cccc3Cl)cc2cn1 [2/2],100 to 1000 nM
3,Cn1ncnc1C(=O)Nc1cc2[nH]c(-c3ccccc3C(F)F)c(F)c2cn1 [2/3],< 100 nM
4,Cn1ncnc1C(=O)Nc1cc2[nH]c(-c3ccccc3C(F)F)c(Cl)c2cn1 [2/4],< 100 nM
5,Cn1ncnc1C(=O)Nc1cc2[nH]c(-c3cc(C(F)F)ccc3F)cc2cn1 [2/5],100 to 1000 nM
6,Cn1ncnc1C(=O)Nc1cc2[nH]c(-c3cc(C#N)ccc3C(F)(F)F)cc2cn1 [2/6],< 100 nM
7,Cn1ncnc1C(=O)Nc1cc2[nH]c(-c3ccccc3C(C)(C)O)cc2cn1 [2/7],> 1000 nM
8,Cn1cncc1C(=O)Nc1cc2[nH]c(-c3ccccc3C(F)F)cc2cn1 [4/1],100 to 1000 nM
9,Cn1ccnc1C(=O)Nc1cc2[nH]c(-c3ccccc3C(F)F)cc2cn1 [4/2],< 100 nM
10,Cc1ocnc1C(=O)Nc1cc2[nH]c(-c3ccccc3C(F)F)cc2cn1 [4/3],< 100 nM
11,"Cc1ccccc1-c1cc2cnc(NC(=O)c3ccnn3C)cc2[nH]1 [Example 1, 1-Methyl-N-(2-(o-tolyl)-1H-pyrrolo[3,2-c]pyridin-6-yl)-1H-pyrazole-5-carboxamide]",100 to 1000 nM
12,"Cn1nccc1C(=O)Nc1cc2[nH]c(-c3ccccc3C(F)(F)F)cc2cn1 [Example 1/1, 1-Methyl-N-(2-(2-(trifluoromethyl)phenyl)-1H-pyrrolo[3,2-c]pyridin-6-yl)-1H-pyrazole-5-carboxamide]",< 100 nM
13,"Cn1ncnc1C(=O)Nc1cc2[nH]c(-c3ccccc3C(F)(F)F)cc2cn1 [Example 1/2, 1-Methyl-N-(2-(2-(trifluoromethyl)phenyl)-1H-pyrrolo[3,2-c]pyridin-6-yl)-1H-1,2,4-triazole-5-carboxamide]",< 100 nM
14,"O=C(Nc1cc2[nH]c(-c3ccccc3C(F)(F)F)cc2cn1)c1ccccn1 [Example 1/3, N-(2-(2-(Trifluoromethyl)phenyl)-1H-pyrrolo[3,2-c]pyridin-6-yl) picolinamide]",< 100 nM
15,"Cn1ncnc1C(=O)Nc1cc2[nH]c(-c3cc(F)ccc3C(F)(F)F)cc2cn1 [Example 1/4, N-(2-(5-Fluoro-2-(trifluoromethyl)phenyl)-1H-pyrrolo[3,2-c]pyridin-6-yl)-1-methyl-1H-1,2,4-triazole-5-carboxamide]",< 100 nM
16,"Cn1cnnc1C(=O)Nc1cc2[nH]c(-c3ccccc3C(F)F)cc2cn1 [Example 1/5, N-(2-(2-(Difluoromethyl)phenyl)-1H-pyrrolo[3,2-c]pyridin-6-yl)-4-methyl-4H-1,2,4-triazole-3-carboxamide]",> 1000 nM
17,"Cn1ncnc1C(=O)Nc1cc2[nH]c(-c3ccccc3C(F)F)cc2cn1 [Example 1/6, N-(2-(2-(Difluoromethyl)phenyl)-1H-pyrrolo[3,2-c]pyridin-6-yl)-1-methyl-1H-1,2,4-triazole-5-carboxamide]",< 100 nM
18,"Cn1cnnc1C(=O)Nc1cc2[nH]c(-c3cc(F)ccc3C(F)(F)F)cc2cn1 [Example 1/7, N-(2-(5-Fluoro-2-(trifluoromethyl)phenyl)-1H-pyrrolo[3,2-c]pyridin-6-yl)-4-methyl-4H-1,2,4-triazole-3-carboxamide]",< 100 nM
19,"Cn1ncnc1C(=O)Nc1cc2[nH]c(-c3cc(F)ccc3C(F)F)cc2cn1 [Example 1/8, N-(2-(2-(Difluoromethyl)-5-fluorophenyl)-1H-pyrrolo[3,2-c]pyridin-6-yl)-1-methyl-1H-1,2,4-triazole-5-carboxamide]",< 100 nM
20,"Cn1ncnc1C(=O)Nc1cc2[nH]c(-c3ccoc3C(F)F)cc2cn1 [Example 1/9, N-(2-(2-(Difluoromethyl)furan-3-yl)-1H-pyrrolo[3,2-c]pyridin-6-yl)-1-methyl-1H-1,2,4-triazole-5-carboxamide]",100 to 1000 nM
21,"Cn1ncnc1C(=O)Nc1cc2[nH]c(-c3cc(C(F)(F)F)ccc3C(F)(F)F)cc2cn1 [Example 1/10, N-(2-(2,5-Bis(trifluoromethyl)phenyl)-1H-pyrrolo[3,2-c]pyridin-6-yl)-1-methyl-1H-1,2,4-triazole-5-carboxamide]",< 100 nM
22,"Cn1ncnc1C(=O)Nc1cc2[nH]c(-c3cc(C4CC4)ccc3C(F)(F)F)cc2cn1 [Example 1/11, N-(2-(5-Cyclopropyl-2-(trifluoromethyl)phenyl)-1H-pyrrolo[3,2-c]pyridin-6-yl)-1-methyl-1H-1,2,4-triazole-5-carboxamide]",< 100 nM
23,"Cn1ncnc1C(=O)Nc1cc2[nH]c(-c3cc(F)c(F)cc3C(F)F)cc2cn1 [Example 1/12, N-(2-(2-(Difluoromethyl)-4,5-difluorophenyl)-1H-pyrrolo[3,2-c]pyridin-6-yl)-1-methyl-1H-1,2,4-triazole-5-carboxamide]",100 to 1000 nM
24,"CCc1ccc(C(F)(F)F)c(-c2cc3cnc(NC(=O)c4ncnn4C)cc3[nH]2)c1 [Example 1/13, N-(2-(5-Ethyl-2-(trifluoromethyl)phenyl)-1H-pyrrolo[3,2-c]pyridin-6-yl)-1-methyl-1H-1,2,4-triazole-5-carboxamide]",< 100 nM
25,"CC(C)c1ccccc1-c1cc2cnc(NC(=O)c3ncnn3C)cc2[nH]1 [Example 2, N-(2-(2-Isopropylphenyl)-1H-pyrrolo[3,2-c]pyridin-6-yl)-1-methyl-1H-1,2,4-triazole-5-carboxamide]",100 to 1000 nM
26,"CN(C(=O)c1ncnn1C)c1cc2[nH]c(-c3cc(F)ccc3C(F)F)cc2cn1 [Example 3, N-(2-(2-(Difluoromethyl)-5-fluorophenyl)-1H-pyrrolo[3,2-c]pyridin-6-yl)-N,1-dimethyl-1H-1,2,4-triazole-5-carboxamide]",100 to 1000 nM
27,"Cc1scnc1C(=O)Nc1cc2[nH]c(-c3ccccc3C(F)F)cc2cn1 [Example 4, N-(2-(2-(Difluoromethyl)phenyl)-1H-pyrrolo[3,2-c]pyridin-6-yl)-5-methylthiazole-4-carboxamide]",< 100 nM
28,"Cn1ncnc1C(=O)Nc1cc2[nH]c(-c3ccccc3C(F)F)c(C#N)c2cn1 [Example 5, N-(3-Cyano-2-(2-(difluoromethyl)phenyl)-1H-pyrrolo[3,2-c]pyridin-6-yl)-1-methyl-1H-1,2,4-triazole-5-carboxamide]",100 to 1000 nM
